# From patent US12552771B2, “Carboxylic acid containing azetidinyl compounds for the treatment of neurodegenerative diseases” (Celgene Corporation, priority 2021, dated 2026)
# Target: T1, S1P5 receptors (Homo sapiens, UniProt Q9H228)
# T1 construct: expressed in transfected cells; host or cells: CHO cells (membranes)
# Assay: [35S]-GTPγS binding assay with CHO-S1P5 receptor membranes
# Assay type: biochemical
# Details: membranes of CHO cells expressing recombinant S1P5 receptors; measure of S1P5 agonism
# Method in brief: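 Membranes from CHO cells expressing recombinant S1P5 were preincubated for 30 min at RT with compound, GDP and WGA SPA beads. The buffer was 20 mM HEPES, 10 mM MgCl2, 100 mM NaCl, 1 mM EDTA, 0.1% fatty-acid-free BSA and 30 μg/mL saponin, pH 7.4. [35S]GTPγS (200 pM final) was added for 40 min, and bound radioactivity read as agonism; S1P was the control.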
# T1 sequence (Q9H228 whole entry): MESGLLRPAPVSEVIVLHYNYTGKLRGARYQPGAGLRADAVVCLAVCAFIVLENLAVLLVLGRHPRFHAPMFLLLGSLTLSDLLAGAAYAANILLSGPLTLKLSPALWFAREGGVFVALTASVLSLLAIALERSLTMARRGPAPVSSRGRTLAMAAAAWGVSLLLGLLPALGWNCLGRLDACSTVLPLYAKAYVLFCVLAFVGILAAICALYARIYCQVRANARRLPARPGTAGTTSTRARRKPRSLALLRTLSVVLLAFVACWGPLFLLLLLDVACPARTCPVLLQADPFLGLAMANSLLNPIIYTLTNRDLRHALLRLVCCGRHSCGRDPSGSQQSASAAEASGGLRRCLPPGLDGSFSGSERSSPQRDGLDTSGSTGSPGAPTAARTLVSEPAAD
row,EC50,Compound
1,10 to 100 nM,"Cc1cc(C2CN(c3c(Cl)cccc3Cl)C2)cnc1CN1CCC(C(=O)O)CC1 [Compound 76, 1-((5-(1-(2,6-dichlorophenyl)azetidin-3-yl)-3-methylpyridin-2-yl)methyl)-piperidine-4-carboxylic acid]"
2,≤ 10 nM,"Cc1cc(C2CN(c3c(C)cccc3F)C2)cc(C)c1CN1CCC(C(=O)O)CC1 [Compound 66, 1-(4-(1-(2-fluoro-6-methylphenyl)azetidin-3-yl)-2,6-dimethylbenzyl)-piperidine-4-carboxylic acid]"
3,10 to 100 nM,"Cc1cc(C2CN(c3c(F)cccc3F)C2)cc(C)c1CN1CCC(C(=O)O)CC1 [Compound 44, 1-(4-(1-(2,6-difluorophenyl)azetidin-3-yl)-2,6-dimethylbenzyl)piperidine-4-carboxylic acid]"
4,100 to 1000 nM,"Cc1cc(CN2CCC(C(=O)O)CC2)ncc1C1CN(c2c(Cl)cccc2Cl)C1 [Compound 77, 1-((5-(1-(2,6-dichlorophenyl)azetidin-3-yl)-4-methylpyridin-2-yl)methyl)-piperidine-4-carboxylic acid]"
5,≤ 10 nM,"Cc1cc(C2CN(c3c(Cl)cccc3Cl)C2)cc(C)c1CN1CC[C@H](C(=O)O)C1 [Compound 62, (S)-1-(4-(1-(2,6-dichlorophenyl)azetidin-3-yl)-2,6-dimethylbenzyl)-pyrrolidine-3-carboxylic acid]"
6,≤ 10 nM,"O=C(O)C1CCN(C2CCc3cc(C4CN(c5c(Cl)cccc5Cl)C4)ccc32)CC1 (single isomer, unassigned) [Compound 1a, 1-(5-(1-(2,6-dichlorophenyl)azetidin-3-yl)-2,3-dihydro-1H-inden-1-yl)piperidine-4-carboxylic acid]"
